Experimental data: the supplement of paper PMC10307832

Legend:
Assay in all cases: relative viability (nuclei count vs DMSO), 5 days (fraction); higher = more cells survive
[1] = system: A-427
Method in brief: (§1)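 One day after seeding in 1536-well plates, lung cancer cell lines were dosed by pin tool. Dosing was either single-drug or a fixed anchor-drug dose plus five library-drug doses (not always all listed) in √10 steps. After 5 days, nuclei were stained in one fix-and-stain step and counted on 4× images, and relative viability is the nuclei count of treated wells over that of vehicle wells, given as the median of duplicate plates.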

[2] = system: ChaGo-K-1
Method in brief: as §1

[3] = system: EKVX
Method in brief: as §1

[4] = system: H3255
Method in brief: as §1

[5] = system: LK-2
Method in brief: as §1

[6] = system: NCI-H1355
Method in brief: as §1

[7] = system: NCI-H1650
Method in brief: as §1

[8] = system: NCI-H1666
Method in brief: as §1

[9] = system: NCI-H1755
Method in brief: as §1

[10] = system: NCI-H1944
Method in brief: as §1

[11] = system: NCI-H2085
Method in brief: as §1

[12] = system: NCI-H2228
Method in brief: as §1

[13] = system: NCI-H2347
Method in brief: as §1

[14] = system: NCI-H3122
Method in brief: as §1

[15] = system: NCI-H322M
Method in brief: as §1

[16] = system: NCI-H358
Method in brief: as §1

[17] = system: NCI-H441
Method in brief: as §1

[18] = system: NCI-H460
Method in brief: as §1

[19] = system: NCI-H520
Method in brief: as §1

[20] = system: NCI-H596
Method in brief: as §1

[21] = system: NCI-H650
Method in brief: as §1

[22] = system: NCI-H838
Method in brief: as §1

[23] = system: SW 1573
Method in brief: as §1

O=c1[nH]c2ccccc2n1C1CCN(CCCC(c2ccc(F)cc2)c2ccc(F)cc2)CC1 [Pimozide] + Nc1nc2[nH]cc(CCc3ccc(C(=O)N[C@@H](CCC(=O)O)C(=O)O)cc3)c2c(=O)[nH]1 [Pemetrexed] (partner 0.2 µM)
relative viability ([1]; first compound 0.08 µM): 0.992
relative viability ([1]; first compound 0.253 µM): 0.979
relative viability ([1]; first compound 0.8 µM): 0.928
relative viability ([1]; first compound 2.53 µM): 0.899
relative viability ([1]; first compound 8 µM): 0.845
relative viability ([2]; first compound 0.08 µM): 0.248
relative viability ([2]; first compound 0.253 µM): 0.277
relative viability ([2]; first compound 0.8 µM): 0.245
relative viability ([2]; first compound 2.53 µM): 0.267
relative viability ([2]; first compound 8 µM): 0.254
relative viability ([3]; first compound 0.253 µM): 0.336
relative viability ([3]; first compound 0.8 µM): 0.362
relative viability ([3]; first compound 2.53 µM): 0.397
relative viability ([3]; first compound 8 µM): 0.412
relative viability ([4]; first compound 0.253 µM): 0.53
relative viability ([4]; first compound 0.8 µM): 0.503
relative viability ([4]; first compound 2.53 µM): 0.519
relative viability ([4]; first compound 8 µM): 0.578
relative viability ([5]; first compound 0.08 µM): 0.243
relative viability ([5]; first compound 0.253 µM): 0.268
relative viability ([5]; first compound 0.8 µM): 0.335
relative viability ([5]; first compound 8 µM): 0.265
relative viability ([6]; first compound 0.08 µM): 1.07
relative viability ([6]; first compound 0.253 µM): 1.01
relative viability ([6]; first compound 0.8 µM): 0.878
relative viability ([6]; first compound 2.53 µM): 1.03
relative viability ([6]; first compound 8 µM): 1.01
relative viability ([7]; first compound 0.08 µM): 0.338
relative viability ([7]; first compound 0.253 µM): 0.341
relative viability ([7]; first compound 0.8 µM): 0.326
relative viability ([7]; first compound 2.53 µM): 0.356
relative viability ([7]; first compound 8 µM): 0.408
relative viability ([8]; first compound 0.08 µM): 0.808
relative viability ([8]; first compound 0.253 µM): 0.809
relative viability ([8]; first compound 0.8 µM): 0.834
relative viability ([8]; first compound 2.53 µM): 0.891
relative viability ([8]; first compound 8 µM): 0.782
relative viability ([9]; first compound 0.08 µM): 0.707
relative viability ([9]; first compound 0.253 µM): 0.423
relative viability ([9]; first compound 0.8 µM): 0.516
relative viability ([9]; first compound 2.53 µM): 0.389
relative viability ([9]; first compound 8 µM): 0.393
relative viability ([10]; first compound 0.08 µM): 0.68
relative viability ([10]; first compound 2.53 µM): 0.466
relative viability ([10]; first compound 8 µM): 0.512
relative viability ([11]; first compound 0.08 µM): 0.812
relative viability ([11]; first compound 0.253 µM): 1.01
relative viability ([11]; first compound 0.8 µM): 0.745
relative viability ([11]; first compound 2.53 µM): 0.938
relative viability ([11]; first compound 8 µM): 0.735
relative viability ([12]; first compound 0.08 µM): 0.329
relative viability ([12]; first compound 0.253 µM): 0.369
relative viability ([12]; first compound 0.8 µM): 0.306
relative viability ([12]; first compound 2.53 µM): 0.334
relative viability ([12]; first compound 8 µM): 0.229
relative viability ([13]; first compound 0.08 µM): 0.406
relative viability ([13]; first compound 0.253 µM): 0.449
relative viability ([13]; first compound 0.8 µM): 0.42
relative viability ([13]; first compound 2.53 µM): 0.368
relative viability ([13]; first compound 8 µM): 0.475
relative viability ([14]; first compound 0.08 µM): 0.238
relative viability ([14]; first compound 0.253 µM): 0.206
relative viability ([14]; first compound 0.8 µM): 0.178
relative viability ([14]; first compound 2.53 µM): 0.195
relative viability ([14]; first compound 8 µM): 0.2
relative viability ([15]; first compound 0.08 µM): 0.571
relative viability ([15]; first compound 0.253 µM): 0.668
relative viability ([15]; first compound 0.8 µM): 0.622
relative viability ([15]; first compound 2.53 µM): 0.604
relative viability ([15]; first compound 8 µM): 0.609
relative viability ([16]; first compound 0.08 µM): 0.171
relative viability ([16]; first compound 0.253 µM): 0.178
relative viability ([16]; first compound 0.8 µM): 0.159
relative viability ([16]; first compound 2.53 µM): 0.172
relative viability ([16]; first compound 8 µM): 0.147
relative viability ([17]; first compound 0.08 µM): 0.27
relative viability ([17]; first compound 0.253 µM): 0.314
relative viability ([17]; first compound 0.8 µM): 0.276
relative viability ([17]; first compound 2.53 µM): 0.265
relative viability ([17]; first compound 8 µM): 0.238
relative viability ([18]; first compound 0.08 µM): 0.05
relative viability ([18]; first compound 0.253 µM): 0.0643
relative viability ([18]; first compound 0.8 µM): 0.0627
relative viability ([18]; first compound 2.53 µM): 0.0654
relative viability ([18]; first compound 8 µM): 0.0685
relative viability ([19]; first compound 0.08 µM): 0.651
relative viability ([19]; first compound 0.253 µM): 0.723
relative viability ([19]; first compound 0.8 µM): 0.739
relative viability ([19]; first compound 2.53 µM): 0.734
relative viability ([19]; first compound 8 µM): 0.575
relative viability ([20]; first compound 0.08 µM): 0.538
relative viability ([20]; first compound 0.253 µM): 0.487
relative viability ([20]; first compound 0.8 µM): 0.534
relative viability ([20]; first compound 2.53 µM): 0.436
relative viability ([20]; first compound 8 µM): 0.479
relative viability ([21]; first compound 0.08 µM): 0.939
relative viability ([21]; first compound 0.253 µM): 0.936
relative viability ([21]; first compound 0.8 µM): 0.793
relative viability ([21]; first compound 2.53 µM): 0.914
relative viability ([21]; first compound 8 µM): 1.02
relative viability ([22]; first compound 0.08 µM): 0.251
relative viability ([22]; first compound 0.253 µM): 0.242
relative viability ([22]; first compound 0.8 µM): 0.238
relative viability ([22]; first compound 2.53 µM): 0.236
relative viability ([22]; first compound 8 µM): 0.221
relative viability ([23]; first compound 0.08 µM): 0.852
relative viability ([23]; first compound 0.253 µM): 0.849
relative viability ([23]; first compound 0.8 µM): 0.831
relative viability ([23]; first compound 2.53 µM): 0.665
relative viability ([23]; first compound 8 µM): 0.558
